Experimental data as given in patent US20160339008A1, “METHODS OF TREATING OR PREVENTING VASCULAR DISEASES OF THE RETINA” (Children's Medical Center Corporation, priority 2013, published 2016).

Assays:
[1] = tested on: aortic rings (macrovascular sprouting); experiment: Aortic ring sprouting assay (ex vivo aortic ring explants); assay type: cell-based, mouse
Procedure: Tie2-CYP2C8Tg, Tie2-sEHTg, sEH−/− mice and littermate wild-type mice were anesthetized and perfused intracardiacly with warm PBS. Aortae were dissected free, cut into 1-mm-thick rings and embedded in 304, of growth factor-reduced Matrigel™ (BD Biosciences, Cat. 354230) in 24-well tissue culture plates. 5004, CSC complete medium (Cell Systems, Cat. 420-500) activated with growth factor Boost, was then added to each well and incubated at 37° C. with 5% CO2 for 48 hours before any treatment. Medium contained 5 units/mL of Penicillin/Streptomycin (GIBCO, Cat. 15142) to prevent contamination.
DHA (Cayman Chemical, Cat. 90310, 30 μM) and AA (Cayman Chemical, Cat. 90010, 30 μM) were introduced to the culture medium 48 hours after seeding of aortic ring from Tie2-CYP2C8Tg and littermate wild-type control. 17(18)-EpETE (EEQ) (Cayman Chemical, Cat. 50861, 1 μM), 19(20)-EpDPE (EDP) (Cayman Chemical, Cat. 10175, 1 μM) and 14,15-EE-8(Z)-E (EET) (Cayman Chemical, Cat. 10010486, 1 μM) were administered to the culture medium 48 hours after seeding of aortic ring from Tie2-sEHTg, sEH−/− and their wild-type littermate controls. Medium was changed every 48 hours for all groups. Phase contrast photos of individual explants were taken 168 hours after plating (120 hours after treatment) using a ZEISS Axio Oberver.Z1 microscope. The areas of macrovascular sprouting were quantified with computer software ImageJ 1.46r (National Institute of Health). A semi-automated macro plugin for quantification of vessel sprouts is available from the authors.

[2] = tested on: human retinal microvascular endothelial cells (HRMEC); experiment: HRMEC migration; assay type: cell-based; conditions: for rescue of the inhibition of HRMEC migration by FA: with FA
[3] = tested on: human retinal microvascular endothelial cells (HRMEC); experiment: HRMEC tubule formation; assay type: cell-based
[4] = tested on: neovascularization (NV) in oxygen-induced retinopathy; experiment: Oxygen-induced retinopathy (OIR) mouse model, quantification of retinal neovascularization; assay type: in vivo; conditions: for magnitude of the extent of reduction in NV, Cyp2C8 Tg mice compared to WT mice: 10 mg/kg/day GV, mice fed ω3 (n3) or ω6 (n6)
Procedure: Mouse model of OIR is described^13. C57BL/6J mice were analyzed by immunohistochemistry, real-time PCR, western blot, blood smear and LC/MS/MS oxylipid analysis. Mothers of Cyp and sEH mutant mice were fed ω3PUFA or ω6PUFA-enriched diets in OIR followed by analysis of retina, plasma and aortic ring sprouting.
The mouse model of oxygen-induced retinopathy has been previously described (Smith et al. Invest Ophthalmol Vis Sci 35: 101-111). To induce vessel loss, mice were exposed to 75% oxygen from postnatal day 7 (P7) to P12. The central retinal vessel obliteration induced by hyperoxic exposure will trigger an excessive angiogenic response that causes neovascularization. Mice were given lethal doses of Avertin (Sigma) intraperitoneally at P17 when the neovascular response is greatest.
For dietary experiments, polyunsaturated fatty acids (PUFAs), arachidonic acid (AA) and docosahexaenoic acid (DHA) supplements under the trade names ROPUFA, ARASCO and DHASCO, respectively, were obtained from DSM Nutritional Products (dsmnutritionalproducts.com) and were integrated into the rodent feed at Research Diets Incorporated (researchdiets.com/). […] Upon delivery, dams were fed a defined rodent diet with 10% (w/w) safflower oil containing either 2% ω-6 PUFAs (AA) and no ω-3 PUFAs (DHA and EPA), or 2% ω-3 PUFAs and no ω-6 PUFAs.
OIR eyes were enucleated and fixed in 4% paraformaldehyde for 1 hour at 4° C. Retinas were dissected and stained overnight at 23° C. with Alexa Fluor 594 fluoresceinated Griffonia Bandereiraea Simplicifolia Isolectin B4 (Molecular Probes, Cat. 121413, 1:100 dilution) in 1 mM CaCl2 in PBS. Following 2 hours of washes, retinas were whole-mounted onto Superfrost/Plus microscope slides (Fisher, Cat. 12-550-15) with the photoreceptor side up and embedded in SlowFade Antifade reagent (Invitrogen, Cat. S2828). For quantification of retinal neovascularization, 20 images of each whole-mounted retina were obtained at 5× magnifications on a Zeiss AxioObserver.Z1 microscope and merged to form one image with AxioVision 4.6.3.0 software. Vaso-obliteration was quantified using Adobe Photoshop and neovascularization was analysed with the SWIFT_NV method on ImageJ 1.46r (NIH) software, as described previously (Stahl et al. Angiogenesis 12: 297-301).

Q: Which “aortic ring sprouting compared between WT, Tie2-sEH-Tg and sEH−/− mice” value ([1]; 1 μM) does the source give for CCCCCC1OC1C/C=C\C/C=C\C/C=C\CCCC(=O)O (stereo not shown) [14,15-EET, 14,15-EE-8(Z)-E] here?
A: Its value is “similar”.

Q: How did the “aortic ring sprouting compared between WT, Tie2-sEH-Tg and sEH−/− mice” value ([1]; 1 μM) turn out when CCC1OC1C/C=C\C/C=C\C/C=C\C/C=C\CCCC(=O)O (stereo not shown) [17,18-EEQ, 17(18)-EpETE] was run?
A: The value was “no difference”.

Q: And the “rescue of the inhibition of HRMEC migration by FA” value [2]?
A: The value was “partially rescuing”.

Q: Which “less sprouting, treated Tie2-sEH-Tg aortic ring versus WT” value ([1]; 1 μM) does the source give for CCC1OC1C/C=C\C/C=C\C/C=C\C/C=C\C/C=C\CCC(=O)O (stereo not shown) [19,20-EDP, 19(20)-EpDPE] here?
A: Its value is 50%.

Q: And the “rescue of FA inhibition of aortic ring sprouting” value ([1]; rings from WT & Cyp2C8 Tg mice, with FA)?
A: The value was “partially rescued”.

Q: What about the “rescue of the inhibition of HRMEC tubule formation by FA” value ([3]; with FA) of the same molecule?
A: The value was “partially rescued”.

Q: What about the “rescue of the inhibition of HRMEC migration by FA” value [2] of the same molecule?
A: Its value is “partially rescuing”.

Q: With CCCCC/C=C\C/C=C\C/C=C\C/C=C\CCCC(=O)O [AA, arachidonic acid] as the molecule, how does the “potentiation of aortic sprouting, AA vs. DHA” value ([1]; 30 μM, Tie2-CYP2C8-Tg rings) read?
A: The value was “abolished”.

Q: And the “aortic sprouting, AA vs. DHA” value ([1]; 30 μM, WT rings)?
A: The value was “potentiated aortic sprouting”.

Q: How did the “aortic sprouting, Tie2-CYP2C8-Tg versus WT” value ([1]; DHA treatment 30 μM) turn out when CC/C=C\C/C=C\C/C=C\C/C=C\C/C=C\C/C=C\CCC(=O)O [DHA, docosahexaenoic acid] was run?
A: Its value is “increased sprouting”.

Q: For CCC(=O)NC[C@H](Cc1ccc(OCCc2nc(-c3ccccc3)oc2C)cc1)N/C(C)=C\C(=O)c1ccc(C(F)(F)F)cc1 [GW6471], which “impact upon the effect of FA on aortic ring sprouting” value ([1]; rings from WT and Cyp2C8 Tg mice, with FA) is on record?
A: Its value is “no impact”.

Q: And the “impact upon the effect of fenofibrate on HRMEC tubule formation” value ([3]; with fenofibrate)?
A: Its value is “no impact”.

Q: What about the “impact upon the effect of fenofibrate on HRMEC migration” value ([2]; with FA/fenofibrate) of the same molecule?
A: Its value is “no impact”.

Q: How did the “magnitude of the extent of reduction in NV, Cyp2C8 Tg mice compared to WT mice” value [4] turn out when CC(C)OC(=O)C(C)(C)Oc1ccc(C(=O)c2ccc(Cl)cc2)cc1 [fenofibrate] was run?
A: Its value is “enhanced in mice that overexpressed CYP2C8”.

Q: And the neovascularization ([4]; Cyp2C8 overexpressing transgenic (Tg) mice, ω3 and ω6 LCPUFA feed, low dose)?
A: The neovascularization was “decreased neovascularization”.

Q: What about the “neovascularization (NV)” value ([4]; JAX (WT) mice, normal feed, high dose 100 mg/kg/day GV) of the same molecule?
A: The value was “significant reduction in neovascularization”.

Q: And the “neovascularization (NV)” value ([4]; JAX (WT) mice, normal feed, low dose 10 mg/kg/day GV)?
A: Its value is “significant reduction in neovascularization”.

Q: What about the “neovascularization (NV)” value ([4]; PPARα knockout mice, normal feed, high dose 100 mg/kg/day GV) of the same molecule?
A: Its value is “significant reduction in neovascularization”.

Q: What about the “neovascularization (NV)” value ([4]; PPARα knockout mice, normal feed, low dose 10 mg/kg/day GV) of the same molecule?
A: The value was “significant reduction in neovascularization”.

Q: What about the neovascularization ([4]; WT mice, ω3 and ω6 LCPUFA feed, low dose) of the same molecule?
A: The neovascularization was “decreased neovascularization”.

Q: What about the HRMEC tubule formation [3] of the same molecule?
A: The HRMEC tubule formation was “inhibit HRMEC tubule formation”.

Q: Which results are given for CC(C)(O)c1ccccc1CC[C@@H](SCC1(CC(=O)O)CC1)c1cccc(/C=C/c2ccc3ccc(Cl)cc3n2)c1 [montelukast]?
A: magnitude of the extent of reduction in NV, Cyp2C8 Tg mice compared to WT mice [4]: enhanced in mice that overexpressed CYP2C8; neovascularization ([4]; JAX (WT) mice, normal feed, dose not given): reduced in a statistically significant manner; HRMEC tubule formation [3]: clear dose-response curves; HRMEC migration [2]: inhibited
